Experiments:
[1] = test system: ATCC 43300 MRSA strain; test: Induction of resistance studies, ex vivo bacterial exposure to 4×MIC (Example 1); format: cell-based, Staphylococcus aureus; conditions: ex vivo exposure to 4×MIC; single and combination therapy; 24h or 72h biofilm
Procedure: Two experimental settings were used in this study to evaluate the treatment efficacies against early (24h) and/or mature (72h) MRSA catheter formed biofilms. Briefly, mice were anaesthetised by an IP injection of about 120 μl a mix of ketamine (50 mg/kg) and xylazine (10 mg/kg) (4 mL ketamine+2 mL xylazine+10 mL saline). Flank on the right side was shaved and then disinfected by 3 consecutive applications of betadine. A cutaneous and then subcutaneous (SC) incisions of 0.2 cm were made under sterile conditions and a 1 cm segment of polyurethane catheter (Ref. No. ES-04730 Arrow international) cut into 2 longitudinal fragments was inserted SC (into the incision and then pushed further under the skin, about 2 cm away from the incision). The inoculation was done simultaneously by placing 50 μl of the bacterial culture onto the catheter (10^6 CFU of ATCC 43300 MRSA strain). The incision was stitched up and disinfected. The day of the infection was referred to as Day0 (D0). To ensure that the study was conducted in sterile conditions from the start to the end of the experiment, non-infected mice (sentinel group) were included. […] In both 24 h and 72h biofilm settings, two groups of infected non-treated animals (Vehicle controls) were evaluated for bacterial counts: at baseline (24h or D1 [for 24-h biofilm] and 72h or D3 [for 72-h biofilm] post infection, i.e. time points corresponding to treatments initiations) and at the termination of treatment duration (D6 [for 24-h biofilm] and D8 [for 72-h biofilm] post infection). Post treatment CFUs were counted on D6 or D8 and results were expressed as Log10 CFU/g of catheter (Mean±SEM). The limit of detection was determined as being 1 Log10 CFU/g of catheter. Changes of CFU/g of catheter (Δ Log10) from the baseline (D1 or D3 for 24-h and 72-h biofilm, respectively) and cure rates (corresponding to the percentage of mice without catheter-associated bacteria within a given treatment group) were also calculated. In vivo induction of antibiotic-resistant bacteria was analysed for all tested antibiotics.

[2] = test system: MRSA 43300; test: MIC of Debio 1452; format: cell-based; conditions: Staphylococcus aureus
[3] = test system: ATCC 43300 MRSA strain; test: In vivo murine model of catheter associated infection, 24 h and 72 h MRSA biofilms; parameters: species or system Staphylococcus aureus; conditions: for CR (%) cure rate: 5.5-day treatment, percentage of mice without catheter-associated bacteria
Procedure: Two experimental settings were used in this study to evaluate the treatment efficacies against early (24h) and/or mature (72h) MRSA catheter formed biofilms. Briefly, mice were anaesthetised by an IP injection of about 120 μl a mix of ketamine (50 mg/kg) and xylazine (10 mg/kg) (4 mL ketamine+2 mL xylazine+10 mL saline). Flank on the right side was shaved and then disinfected by 3 consecutive applications of betadine. A cutaneous and then subcutaneous (SC) incisions of 0.2 cm were made under sterile conditions and a 1 cm segment of polyurethane catheter (Ref. No. ES-04730 Arrow international) cut into 2 longitudinal fragments was inserted SC (into the incision and then pushed further under the skin, about 2 cm away from the incision). The inoculation was done simultaneously by placing 50 μl of the bacterial culture onto the catheter (10^6 CFU of ATCC 43300 MRSA strain). The incision was stitched up and disinfected. The day of the infection was referred to as Day0 (D0). To ensure that the study was conducted in sterile conditions from the start to the end of the experiment, non-infected mice (sentinel group) were included. Treatments started either on D1 or D3 post infection, corresponding to early (24h) or more mature (72h) catheter formed biofilms, respectively, and lasted for 5.5 days (D1-D6) or (D3-D8). In both 24 h and 72h biofilm settings, two groups of infected non-treated animals (Vehicle controls) were evaluated for bacterial counts: at baseline (24h or D1 [for 24-h biofilm] and 72h or D3 [for 72-h biofilm] post infection, i.e. time points corresponding to treatments initiations) and at the termination of treatment duration (D6 [for 24-h biofilm] and D8 [for 72-h biofilm] post infection). Post treatment CFUs were counted on D6 or D8 and results were expressed as Log10 CFU/g of catheter (Mean±SEM). The limit of detection was determined as being 1 Log10 CFU/g of catheter. Changes of CFU/g of catheter (Δ Log10) from the baseline (D1 or D3 for 24-h and 72-h biofilm, respectively) and cure rates (corresponding to the percentage of mice without catheter-associated bacteria within a given treatment group) were also calculated. In vivo induction of antibiotic-resistant bacteria was analysed for all tested antibiotics.
Antibiotics doses were selected according to the effective doses in animals, which approximated the therapeutic human equivalent doses (HED) (Table 1).
Mice received antibiotics on D1, D2, D3, D4, D5 and D6 (only one administration at D6) or D3, D4, D5, D6, D7 and D8 (only one administration at D8). All antibiotics were administered BID IP, except Debio 1450 BES and Vancomycin, which were respectively given PO and SC. Daptomycin was tested as a once daily regimen to avoid tolerability issues. The antibiotics daily dosing was performed with a 10-12 hours interval between the two administrations. For combination therapy, antibiotics were administered simultaneously every 10-12 hours (the time required between the injection of the first antibiotic and the injection of the second antibiotic was less than 30 seconds per mouse).
In each sub-study, animals were randomly assigned to the antibiotic therapies or vehicle controls groups. Dose volumes were calculated according to individual body weight of each animal.
After blood collection, animals were sacrificed by cervical dislocation following anaesthesia. Two fragments of catheter per mouse were collected and were used for bacterial enumeration after sonication. Each fragment of catheter was individually washed under aseptic conditions in an Eppendorf tube (3 successive washing steps with 300 μl sterile saline). After the last wash, the catheter was suspended in 1 mL sterile saline, put in an ultrasonic bath (Advantage Lab) for 3 minutes at room temperature before being vigorously vortexed in order to detach all adherent bacteria from the catheter. Several successive dilutions of this suspension (undiluted, 10-2, […]) were cultured onto Chapman agar plates for 48 h at 37° C. […]

Row | Structure (SMILES) | emergence of resistant mutants [1] | MIC ([2]; determined in-house) | MIC ([2]; historical data from the Sponsor) | Log10 CFU/g of catheter (D 6) Mean ± SEM ([3]; Biofilm (24 h), 5.5-day treatment (D1-D6), BALB/c mice, doses as in Table 2) | ΔLog10 CFU/g of catheter from (D 1) Mean ± SEM ([3]; Biofilm (24 h), 5.5-day treatment (D1-D6), change from baseline D 1, BALB/c mice) | CR (%) cure rate ([3]; Biofilm (24 h)) | Log10 CFU/g of catheter (D 8) Mean ± SEM ([3]; Biofilm (72 h), 5.5-day treatment (D3-D8), BALB/c mice, doses as in Table 2) | ΔLog10 CFU/g of catheter from (D 3) Mean ± SEM ([3]; Biofilm (72 h), 5.5-day treatment (D3-D8), change from baseline D 3, BALB/c mice) | CR (%) cure rate ([3]; Biofilm (72 h))
1 | Cc1c(CN(C)C(=O)/C=C/c2cnc3c(c2)CCC(=O)N3)oc2ccccc12 [Debio 1452, (E)-N-methyl-N-((3-methylbenzofuran-2-yl)methyl)-3-(7-oxo-5,6,7,8-tetrahydro-1,8-naphthyridin-3-yl) acrylamide] | no emergence of resistant mutants | 0.0625 µg/mL | 0.008 µg/mL |  |  |  |  |  | 
2 | CN[C@H](CC(C)C)C(=O)N[C@H]1C(=O)N[C@@H](CC(N)=O)C(=O)N[C@H]2C(=O)N[C@H]3C(=O)N[C@H](C(=O)N[C@H](C(=O)O)c4cc(O)cc(O)c4-c4cc3ccc4O)[C@H](O)c3ccc(c(Cl)c3)Oc3cc2cc(c3O[C@@H]2O[C@H](CO)[C@@H](O)[C@H](O)[C@H]2O[C@H]2C[C@](C)(N)[C@H](O)[C@H](C)O2)Oc2ccc(cc2Cl)[C@H]1O [Vancomycin] | no emergence of resistant mutants |  |  | 5.08 ± 0.105 Log10 CFU/g of catheter | −1.59 ± 0.105 Log10 CFU/g of catheter | 0% | 4.84 ± 0.077 Log10 CFU/g of catheter | −1.94 ± 0.077 Log10 CFU/g of catheter | 0%

— US12414958B2, “Medicament and use thereof for treating bacterial infections involving biofilm” (Debiopharm International S.A., priority 2019, dated 2025)
